{
  "source": "paper PMC11651181",
  "about": "“Discovery of 6α-Thiazolylcarboxamidonaltrexamine Derivative (NTZ) as a Potent and Central Nervous System Penetrant Opioid Receptor Modulator with Drug-like Properties for Potential Treatment of Opioid Use Disorder” (ACS Pharmacology & Translational Science, 2024)",
  "key": {"[1]": {"experiment": "In vitro metabolic stability in human liver microsomes", "assay_type": "in vitro ADME", "conditions": "1.0E-07 M", "description": "(§1) The ADMET assessment including the hERG inhibitory activity, plasma protein binding, in vitro metabolic stability profile, CYP inhibitory effect and mutagenic evaluation were conducted by Eurofins Panlabs, Inc.[21],[61],[69]−[71]"}, "[2]": {"experiment": "Plasma protein binding, human", "assay_type": "in vitro ADME", "description": "as §1"}, "CYP1A2": {"target": "T1, CYP1A2 (Homo sapiens, UniProt P05177)", "T1 construct": "Eurofins Panlabs, Inc. (contract laboratory)", "T1 sequence (P05177 1-516)": "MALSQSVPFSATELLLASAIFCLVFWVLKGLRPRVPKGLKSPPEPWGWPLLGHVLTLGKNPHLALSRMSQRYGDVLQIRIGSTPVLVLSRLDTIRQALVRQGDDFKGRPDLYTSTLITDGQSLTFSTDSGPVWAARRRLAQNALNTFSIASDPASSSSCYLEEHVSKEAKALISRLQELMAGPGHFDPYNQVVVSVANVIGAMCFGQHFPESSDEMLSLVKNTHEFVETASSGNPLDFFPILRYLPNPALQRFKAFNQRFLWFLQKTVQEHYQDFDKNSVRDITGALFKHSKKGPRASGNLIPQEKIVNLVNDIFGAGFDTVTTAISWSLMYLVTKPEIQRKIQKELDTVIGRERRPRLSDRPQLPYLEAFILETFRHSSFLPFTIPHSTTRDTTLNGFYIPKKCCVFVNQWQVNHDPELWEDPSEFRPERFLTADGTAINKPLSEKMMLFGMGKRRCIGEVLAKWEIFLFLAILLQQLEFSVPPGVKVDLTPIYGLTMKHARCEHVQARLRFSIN", "experiment": "Cytochrome P450 inhibition assay, CYP1A2", "assay_type": "in vitro ADME", "description": "as §1"}, "morphine-pelleted mice": {"system": "morphine-pelleted mice", "experiment": "In vivo opioid withdrawal studies in morphine-pelleted mice", "parameters": "species or system mouse", "description": "Swiss Webster mice (six males per group, weighing 25–35 g and aged 6–8 weeks) were used. Following a previously established protocol,[20] a 75 mg morphine pellet was implanted subcutaneously into the back of each mouse, and they were allowed to recover in their home cages. Prior to testing, the mice were habituated for 30 min in an open-topped, clear Plexiglas observation chamber (26 × 26 × 26 cm^3) with lines marking the floor into quadrants. […]. Withdrawal symptoms began within 3 min of antagonist administration. Escape jumps, paw tremors, and wet dog shakes were recorded by counting their occurrences over a 20 min period for each mouse. Results are expressed as the mean ± SEM."}, "[3]": {"experiment": "In vitro metabolic stability in Sprague-Dawley rat liver microsomes", "assay_type": "in vitro ADME", "conditions": "1.0E-07 M; for % Compound Remaining, mean: rat liver microsomes", "description": "as §1"}, "CYP3A4": {"target": "T2, CYP3A4 (Homo sapiens, UniProt P08684)", "T2 construct": "Eurofins Panlabs, Inc. (contract laboratory)", "T2 sequence (P08684 whole entry)": "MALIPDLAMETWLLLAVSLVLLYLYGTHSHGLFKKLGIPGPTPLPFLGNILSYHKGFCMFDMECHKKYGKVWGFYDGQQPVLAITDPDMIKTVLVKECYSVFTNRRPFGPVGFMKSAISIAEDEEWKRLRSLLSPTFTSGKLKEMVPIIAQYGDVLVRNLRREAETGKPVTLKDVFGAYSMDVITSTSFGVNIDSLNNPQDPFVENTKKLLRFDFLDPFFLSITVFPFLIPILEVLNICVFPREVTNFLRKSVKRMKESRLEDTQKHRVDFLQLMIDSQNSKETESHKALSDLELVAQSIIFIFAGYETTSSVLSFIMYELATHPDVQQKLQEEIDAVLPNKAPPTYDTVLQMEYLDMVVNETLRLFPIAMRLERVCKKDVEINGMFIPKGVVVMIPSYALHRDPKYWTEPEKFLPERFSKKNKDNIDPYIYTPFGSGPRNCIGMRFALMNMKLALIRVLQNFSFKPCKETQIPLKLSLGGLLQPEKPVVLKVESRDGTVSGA", "experiment": "Cytochrome P450 inhibition assay, CYP3A4", "assay_type": "in vitro ADME", "description": "as §1"}, "typical tester strains": {"system": "typical tester strains", "experiment": "Bacterial reverse mutation assay", "conditions": "up to 100 μM", "description": "as §1"}, "[4]": {"conditions": "5 mg/kg s.c., counted over 20 min"}, "[5]": {"conditions": "Sprague-Dawley rat liver microsomes"}},
  "note": "Counter-ions that a name gives are not always drawn.",
  "data": [
    {"compound": "O=C(N[C@H]1CC[C@@]2(O)[C@H]3Cc4ccc(O)c5c4[C@@]2(CCN3CC2CC2)[C@H]1O5)c1nccs1", "note": "[Compound 6, 17-Cyclopropylmethyl-3,14β-dihydroxy-4,5α-epoxy-6α-(2′-thiazolylcarboxamido)-morphinan hydrochloride]", "values": [
      {"measurement": "half-life at 100 nM", "setting": "[1]", "result": "> 1", "unit": "h"},
      {"measurement": "microsomal CLint at 100 nM", "setting": "[1]", "result": "< 38.5", "unit": "µL/min/mg"},
      {"measurement": "% Compound Remaining, mean", "setting": "[1]; 15 min", "result": 101, "unit": "%"},
      {"measurement": "% Compound Remaining, mean", "setting": "[1]; 30 min", "result": 101, "unit": "%"},
      {"measurement": "% Compound Remaining, mean", "setting": "[1]; 45 min", "result": 103, "unit": "%"},
      {"measurement": "% Compound Remaining, mean", "setting": "[1]; 60 min", "result": 97, "unit": "%"},
      {"measurement": "fraction unbound", "setting": "[2]", "result": 0.56},
      {"measurement": "inhibition at 10 µM", "setting": "CYP1A2; 1.0E-05 M", "result": 7.4, "unit": "%"},
      {"measurement": "inhibition at 100 nM", "setting": "CYP1A2; 1.0E-07 M", "result": 11.4, "unit": "%"},
      {"measurement": "Jumps, mean count", "setting": "morphine-pelleted mice; [4]", "result": 36.8},
      {"measurement": "Paw tremors, mean count", "setting": "morphine-pelleted mice; [4]", "result": 30.2},
      {"measurement": "Wet dog shake, mean count", "setting": "morphine-pelleted mice; [4]", "result": 9.8},
      {"measurement": "Precipitated withdrawal symptoms, in words", "setting": "morphine-pelleted mice; s.c.", "result": "fewer wet dog shakes and paw tremors at all testing doses than 1 mg/kg NLX"},
      {"measurement": "half-life at 100 nM", "setting": "[3]; [5]", "result": "> 1", "unit": "h"},
      {"measurement": "microsomal CLint at 100 nM", "setting": "[3]; [5]", "result": "< 38.5", "unit": "µL/min/mg"},
      {"measurement": "% Compound Remaining, mean", "setting": "[3]; 15 min", "result": 106, "unit": "%"},
      {"measurement": "% Compound Remaining, mean", "setting": "[3]; 30 min", "result": 115, "unit": "%"},
      {"measurement": "% Compound Remaining, mean", "setting": "[3]; 45 min", "result": 103, "unit": "%"},
      {"measurement": "% Compound Remaining, mean", "setting": "[3]; 60 min", "result": 105, "unit": "%"},
      {"measurement": "inhibition at 10 µM", "setting": "CYP3A4; 1.0E-05 M", "result": 23.5, "unit": "%"},
      {"measurement": "inhibition at 100 nM", "setting": "CYP3A4; 1.0E-07 M", "result": 10.1, "unit": "%"},
      {"measurement": "Mutagenic potential, in words", "setting": "typical tester strains", "result": "no mutagenic potential"}
    ]}
  ]
}
